From ChEMBL document CHEMBL1201862, “PubChem BioAssay data set” (2004)
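Step 1: Grow cells in 96-well plates. Step 2: Expose to compound for 48 hours at 5 concentrations. Step 3: Interpolate endpoints linearly; if unreached, use highest concentration. GI50 is the concentration that inhibits growth by half.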 The source made the active and inactive calls. No stated cut-off is given here; in the data, active = GI50 up to about 1.1 µM and inactive = higher.

What was measured:
Experiment in all cases: NCI tumour cell line growth inhibition, 48 h
[1] = system: SW-620
[2] = system: LOX IMVI
[3] = system: RPMI-8226
[4] = system: MOLT-4
[5] = system: HCT-15
[6] = system: BT-549
[7] = system: CAKI-1
[8] = system: MDA-N
[9] = system: SNB-75
[10] = system: U-251
[11] = system: UACC-62
[12] = system: OVCAR-5
[13] = system: HCC 2998
[14] = system: SK-MEL-28
[15] = system: UO-31
[16] = system: HT-29
[17] = system: HCT-116
[18] = system: SN12C
[19] = system: PC-3
[20] = system: SF-268
[21] = system: Hs-578T
[22] = system: IGROV-1
[23] = system: OVCAR-8
[24] = system: SR
[25] = system: TK-10
[26] = system: A549
[27] = system: EKVX
[28] = system: COLO 205
[29] = system: SK-MEL-2
[30] = system: NCI-H226
[31] = system: HOP-62
[32] = system: MDA-MB-231
[33] = system: ACHN
[34] = system: MDA-MB-435
[35] = system: K562
[36] = system: 786-0
[37] = system: DU-145
[38] = system: HOP-92
[39] = system: MCF7
[40] = system: M14
[41] = system: SF-295
[42] = system: OVCAR-4
[43] = system: NCI-H23
[44] = system: NCI/ADR-RES
[45] = system: OVCAR-3
[46] = system: NCI-H522
[47] = system: SK-MEL-5
[48] = system: KM12
[49] = system: SNB-19
[50] = system: SK-OV-3
[51] = system: A498
[52] = system: CCRF-CEM
[53] = system: NCI-H460
[54] = system: UACC-257
[55] = system: T47D

COC(=O)C(C)(C)NC(=O)C(Cc1ccccc1)Nc1ncnc2c1ncn2-c1ccc(OC)cc1 (stereo not given)
GI50 [1]: 19.9 µM (inactive)
GI50 [2]: 34.2 µM (inactive)
GI50 [3]: 72.9 µM (inactive)
GI50 [4]: > 10 µM (inactive)
GI50 [5]: 34.8 µM
GI50 [6]: 40.9 µM (inactive)
GI50 [7]: 32.7 µM (inactive)
GI50 [8]: 20.3 µM (inactive)
GI50 [9]: 24.1 µM (inactive)
GI50 [10]: 26.5 µM (inactive)
GI50 [11]: 39.1 µM (inactive)
GI50 [12]: 42.2 µM (inactive)
GI50 [13]: 50.7 µM (inactive)
GI50 [14]: 33.6 µM (inactive)
GI50 [15]: 96.4 µM (inactive)
GI50 [16]: 19.9 µM (inactive)
GI50 [17]: 28.2 µM (inactive)
GI50 [18]: 85.1 µM (inactive)
GI50 [19]: 29.5 µM (inactive)
GI50 [20]: 31 µM (inactive)
GI50 [21]: 27.8 µM (inactive)
GI50 [22]: 15 µM (inactive)
GI50 [23]: 48.2 µM (inactive)
GI50 [24]: > 10 µM (inactive)
GI50 [25]: > 100 µM (inactive)
GI50 [26]: 22.5 µM (inactive)
GI50 [27]: 10.8 µM (inactive)
GI50 [28]: 17.7 µM (inactive)
GI50 [29]: 37.5 µM (inactive)
GI50 [30]: 32.1 µM (inactive)
GI50 [31]: 35.2 µM (inactive)
GI50 [32]: 28.6 µM (inactive)
GI50 [33]: > 100 µM (inactive)
GI50 [34]: 14.9 µM (inactive)
GI50 [35]: > 100 µM (inactive)
GI50 [36]: 28.8 µM (inactive)
GI50 [37]: 47.3 µM (inactive)
GI50 [38]: 22.8 µM (inactive)
GI50 [39]: 23 µM (inactive)
GI50 [40]: 42.7 µM (inactive)
GI50 [41]: 73.1 µM (inactive)
GI50 [42]: 12.7 µM (inactive)
GI50 [43]: 56.8 µM (inactive)
GI50 [44]: 31.3 µM (inactive)
GI50 [45]: 38.8 µM (inactive)
GI50 [46]: 13.1 µM (inactive)
GI50 [47]: 24.8 µM (inactive)
GI50 [48]: 25.6 µM (inactive)
GI50 [49]: > 100 µM (inactive)
GI50 [50]: 46.8 µM (inactive)
GI50 [51]: 20.1 µM (inactive)
GI50 [52]: 13.5 µM (inactive)
GI50 [53]: 22.9 µM (inactive)
GI50 [54]: 39.9 µM (inactive)
GI50 [55]: 17.5 µM (inactive)
